Among the data in patent publication US20120165309A1, “HETERO RING DERIVATIVE” (Astellas Pharma Inc., priority 2009, published 2012) are inhibition in vivo and IC50 values, retold here.

The term IC50 denotes the concentration at which inhibition is half-maximal.

Structures can show the parent of a compound that is named as a salt.

One test concerns IL-2 production. The test can be described thus: Rat in vivo IL-2 production inhibition test (Concanavalin A induced). To be noted: po, male LEW/CrlCrlj rats, 10 mg/kg orally, 2 hours before Concanavalin A 15 mg/kg i.v., blood IL-2 at 3 hours after Concanavalin A, read-out: IL-2 production inhibition activity (inhibition rate vs vehicle control). On the procedure:
3. Rat In vivo IL-2 Production Inhibition Test
For the experiment, male LEW/CrlCrlj rats (Charles River Laboratories, Japan, Inc.) (6-week old, body weight 130 to 180 g) were used. The test compound was suspended in a 0.5% methyl cellulose solution and orally administered at 5 mL/kg. IL-2 production was induced by tail vein injection of Concanavalin A (Funakoshi Corporation, Catalogue No. L-1000) at a dose of 15 mg/kg.
The test was carried out according to the protocol shown below. At 2 hours or 16 hours before administration of Concanavalin A, the test compound was orally administered to rats. At 3 hours after administration of Concanavalin A, blood was collected. The IL-2 concentration in blood was quantified using an ELISA kit (R&D Systems, Inc., Catalogue No. DY502E). An inhibition rate was calculated from the amount of IL-2 produced in a group administered with the test compound with respect to the amount of the IL-2 produced of a control group administered with a vehicle.

In the next test the target is T1, Human PI3Kα (Homo sapiens, UniProt P42336).
T1 construct: purchased Millipore Corporation 14-602
T1 sequence (P42336 whole entry): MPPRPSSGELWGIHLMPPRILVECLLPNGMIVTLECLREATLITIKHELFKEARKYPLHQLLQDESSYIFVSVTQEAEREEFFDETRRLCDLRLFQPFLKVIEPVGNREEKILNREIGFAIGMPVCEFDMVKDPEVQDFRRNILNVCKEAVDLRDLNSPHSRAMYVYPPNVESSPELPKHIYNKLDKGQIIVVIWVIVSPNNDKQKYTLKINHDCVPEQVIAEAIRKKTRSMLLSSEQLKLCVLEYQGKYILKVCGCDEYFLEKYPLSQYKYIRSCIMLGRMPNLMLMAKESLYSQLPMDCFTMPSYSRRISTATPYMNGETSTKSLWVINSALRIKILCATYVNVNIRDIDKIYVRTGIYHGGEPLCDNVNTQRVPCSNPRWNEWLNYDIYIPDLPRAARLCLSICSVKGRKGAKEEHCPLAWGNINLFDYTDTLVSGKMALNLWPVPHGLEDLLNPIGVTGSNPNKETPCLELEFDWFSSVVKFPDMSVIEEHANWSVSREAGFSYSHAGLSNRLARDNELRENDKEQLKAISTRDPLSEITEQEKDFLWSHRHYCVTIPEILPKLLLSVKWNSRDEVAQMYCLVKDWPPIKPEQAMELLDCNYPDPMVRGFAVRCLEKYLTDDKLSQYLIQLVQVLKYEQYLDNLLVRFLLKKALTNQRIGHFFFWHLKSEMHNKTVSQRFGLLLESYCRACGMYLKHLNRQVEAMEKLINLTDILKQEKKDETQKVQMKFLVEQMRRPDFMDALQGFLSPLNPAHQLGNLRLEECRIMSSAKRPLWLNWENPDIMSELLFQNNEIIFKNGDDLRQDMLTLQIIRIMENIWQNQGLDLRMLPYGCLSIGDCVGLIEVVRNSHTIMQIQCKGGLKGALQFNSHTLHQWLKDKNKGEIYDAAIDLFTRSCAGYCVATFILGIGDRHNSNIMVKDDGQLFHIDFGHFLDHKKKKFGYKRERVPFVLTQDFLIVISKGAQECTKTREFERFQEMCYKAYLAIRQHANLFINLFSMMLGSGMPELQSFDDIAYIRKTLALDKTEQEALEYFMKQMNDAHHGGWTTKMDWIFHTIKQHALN
T1 sequence (P27986 whole entry partner): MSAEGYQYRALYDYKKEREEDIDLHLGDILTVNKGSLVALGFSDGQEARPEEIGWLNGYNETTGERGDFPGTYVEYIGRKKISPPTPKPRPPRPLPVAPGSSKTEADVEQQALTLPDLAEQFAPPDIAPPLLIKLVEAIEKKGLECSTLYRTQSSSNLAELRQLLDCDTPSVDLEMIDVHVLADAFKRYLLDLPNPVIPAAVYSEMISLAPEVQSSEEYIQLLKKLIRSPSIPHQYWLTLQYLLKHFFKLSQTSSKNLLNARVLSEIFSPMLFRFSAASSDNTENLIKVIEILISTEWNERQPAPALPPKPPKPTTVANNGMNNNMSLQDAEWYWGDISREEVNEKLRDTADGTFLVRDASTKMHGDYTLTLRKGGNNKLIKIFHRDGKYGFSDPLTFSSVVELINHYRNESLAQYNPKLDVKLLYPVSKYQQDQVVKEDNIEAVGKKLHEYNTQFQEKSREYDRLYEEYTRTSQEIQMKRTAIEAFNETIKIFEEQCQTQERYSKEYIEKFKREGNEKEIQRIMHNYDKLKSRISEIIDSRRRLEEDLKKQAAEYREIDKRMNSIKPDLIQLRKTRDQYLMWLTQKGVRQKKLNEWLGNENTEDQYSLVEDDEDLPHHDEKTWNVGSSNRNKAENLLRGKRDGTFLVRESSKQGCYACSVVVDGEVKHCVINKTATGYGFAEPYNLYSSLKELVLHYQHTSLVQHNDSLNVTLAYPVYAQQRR
The experiment in a line: PI3Kα enzyme inhibitory activity (Kinase-Glo Plus luminescence). To be noted: Human PI3Kα 12 ng/well, phosphatidylinositol 0.2 μg/well, 37° C. for 3 hours. The test is classed as biochemical.

Test [1] deals with Spleen cells (B cell proliferation). The test can be described thus: Rat B cell proliferation inhibition test (anti-rat IgM, [3H]thymidine). The test is classed as cell-based. To be noted: anti-rat IgM 3 μg/well, 48 hours culture, [3H]thymidine uptake. On the procedure:
4. Rat B Cell Proliferation Inhibition Test
Spleen cells (1.0×10^5 cells/well) prepared from male LEW/CrlCrlj rats (Charles River Laboratories, Japan, Inc.), mouse F(ab′)2 fragment anti-rat IgM (3 μg/well, SouthernBiotech Associates, Inc., Catalogue No. 3082-14) and the test compound dissolved in DMSO (final DMSO concentration 0.1%) were mixed in a 96-well plate using a 10% FCS-containing RPMI-1640 culture medium (total 200 μL). They were cultured in a CO2 incubator for 48 hours and [^3H]thymidine (925 GBq/mmol, Moravek Biochemicals, Inc., Catalogue No. MT6038) was added thereto at 0.037 MBq/well at 4 hours before completion of culture. Cells were harvested in a GF/C glass filter using a cell harvester, and a radioactivity on the filter was measured using a liquid scintillation counter. The IC50 value of the compound was calculated, taking the dpm (disintegration per minute) without addition of IgM as an inhibition rate of 100% and the dpm without addition of the test compound as an inhibition rate of 0%, by a logistic method.

Another test addresses T2, human PI3Kδ enzyme (Homo sapiens, UniProt O00329).
T2 construct: purchased Millipore Corporation 14-604
The experiment in a line: PI3Kδ enzyme inhibitory activity (PI3-Kinase HTRF Assay kit). It counts as biochemical. To be noted: human PI3Kδ 10 ng/well, ATP 30 μM, PIP2 10 μM, room temperature 30 minutes. In short, it runs like this: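 Human PI3Kδ (10 ng/well) with phosphatidylinositol-4,5-bisphosphate (10 μM), ATP (30 μM) and compound, 30 min at room temperature; stopped with EDTA/biotin-PIP3. HTRF read after overnight detection (Eu anti-GST, GST-GRP1 PH, streptavidin-APC).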

T2 sequence (O00329 whole entry): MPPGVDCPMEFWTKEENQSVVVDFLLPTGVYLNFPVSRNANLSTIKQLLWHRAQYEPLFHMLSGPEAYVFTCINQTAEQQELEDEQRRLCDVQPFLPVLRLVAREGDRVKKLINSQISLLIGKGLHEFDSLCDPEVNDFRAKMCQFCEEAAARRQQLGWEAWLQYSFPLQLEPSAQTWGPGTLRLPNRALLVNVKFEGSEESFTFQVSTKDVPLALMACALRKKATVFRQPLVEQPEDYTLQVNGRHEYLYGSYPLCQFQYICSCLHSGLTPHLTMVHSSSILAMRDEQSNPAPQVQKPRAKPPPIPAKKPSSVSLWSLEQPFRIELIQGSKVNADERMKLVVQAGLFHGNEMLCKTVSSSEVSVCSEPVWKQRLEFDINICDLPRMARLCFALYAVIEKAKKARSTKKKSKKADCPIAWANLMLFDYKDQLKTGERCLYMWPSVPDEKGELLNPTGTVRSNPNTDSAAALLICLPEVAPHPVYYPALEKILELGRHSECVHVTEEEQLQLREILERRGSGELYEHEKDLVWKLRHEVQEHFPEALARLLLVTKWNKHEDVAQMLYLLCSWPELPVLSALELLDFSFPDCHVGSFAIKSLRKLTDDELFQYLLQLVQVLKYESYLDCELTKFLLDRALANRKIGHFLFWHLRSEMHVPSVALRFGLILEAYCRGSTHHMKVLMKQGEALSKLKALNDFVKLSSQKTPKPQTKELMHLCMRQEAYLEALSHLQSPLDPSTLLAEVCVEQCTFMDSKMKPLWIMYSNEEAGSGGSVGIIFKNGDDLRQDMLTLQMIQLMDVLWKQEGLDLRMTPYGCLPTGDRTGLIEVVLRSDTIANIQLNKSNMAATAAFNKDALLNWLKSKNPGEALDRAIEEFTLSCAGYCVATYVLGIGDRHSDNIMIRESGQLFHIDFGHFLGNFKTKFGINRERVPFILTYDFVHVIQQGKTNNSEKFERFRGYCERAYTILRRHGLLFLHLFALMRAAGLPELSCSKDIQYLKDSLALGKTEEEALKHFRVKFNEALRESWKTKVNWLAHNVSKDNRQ
T2 sequence (P27986 whole entry partner): as the sequence (P27986 whole entry partner) above

With `FC(F)c1nc2ccccc2n1-c1cc(N2CCOCC2)nc(NC[C@H]2CC[C@H](N3CCOCC3)CC2)n1` [Example 201], the inhibition in vivo at 10 mg/kg with IL-2 production amounted to 76%.
`CN(CCF)[C@H]1CC[C@H](CNc2nc(N3CCOCC3)cc(-n3c(C(F)F)nc4ccccc43)n2)CC1` [Example 206]: the IC50 at Human PI3Kα stood at 3300 nM; in test [1], 4.1 nM; at human PI3Kδ enzyme, 4.4 nM. Also, in the test with IL-2 production, the inhibition in vivo at 10 mg/kg worked out at 83%.
In the case of `CN(C)CC(=O)N[C@H]1CC[C@H](Oc2cc(-n3c(C(F)F)nc4ccccc43)nc(N3CCOCC3)n2)CC1` [Example 24, N-[trans-4-({6-[2-(difluoromethyl)-1H-benzimidazol-1-yl]-2-morpholin-4-ylpyrimidin-4-yl}oxy)cyclohexyl]-N,N-dimethylglycinamide hydrochloride], the IC50 is over 3000 nM at Human PI3Kα, 4.2 nM in test [1] and 5.2 nM against human PI3Kδ enzyme. In addition, in the test with IL-2 production, the inhibition in vivo at 10 mg/kg was determined as 79%.
`CN(C)[C@H]1CC[C@H](Nc2nc(N3CCOCC3)nc(-n3c(C(F)F)nc4ccccc43)n2)CC1` [Example 4, trans-N′-{4-[2-(difluoromethyl)-1H-benzimidazol-1-yl]-6-morpholin-4-yl-1,3,5-triazin-2-yl}-N,N-dimethylcyclohexane-1,4-diamine]: the IC50 on Human PI3Kα worked out at 2000 nM; in test [1], 1.8 nM; at human PI3Kδ enzyme it was 33 nM. Besides, the inhibition in vivo at 10 mg/kg in the test with IL-2 production was determined as 83%.
Regarding `CN(C)CC(=O)N[C@H]1CC[C@H](Nc2cc(-n3c(C(F)F)nc4ccccc43)nc(N3CCOCC3)n2)CC1` [Example 46], the half-inhibitory concentration (IC50) was over 3000 nM at Human PI3Kα, 5.2 nM in test [1] and 44 nM on human PI3Kδ enzyme. Moreover, the inhibition in vivo at 10 mg/kg in the test with IL-2 production amounted to 71%.
For `CC(=O)N[C@H]1CC[C@H](Nc2nc(N3CCOCC3)cc(-n3c(C(F)F)nc4ccccc43)n2)CC1` [Example 194], the inhibition in vivo at 10 mg/kg with IL-2 production turned out to be 89%.
For the compound `CN(C)CC(=O)N[C@H]1CC[C@H](Nc2nc(N3CCOCC3)nc(-n3c(C(F)F)nc4ccccc43)n2)CC1` [Example 40], the IC50 at Human PI3Kα came out at 1200 nM. Further, the inhibition in vivo at 10 mg/kg in the test with IL-2 production came to 94%.
`O=C1CCCN1[C@H]1CC[C@H](Nc2nc(N3CCOCC3)cc(-n3c(C(F)F)nc4ccccc43)n2)CC1` [Example 11, 1-[trans-4-({4-[2-(difluoromethyl)-1H-benzimidazol-1-yl]-6-morpholin-4-ylpyrimidin-2-yl}amino)cyclohexyl]pyrrolidin-2-one]: the values for the half-maximal inhibitory concentration (IC50) (at Human PI3Kα; in test [1]; on human PI3Kδ enzyme) were 930 nM, 6.1 nM and 14 nM, respectively. For the same compound, the inhibition in vivo at 10 mg/kg with IL-2 production turned out to be 80%.
For the compound `COCCN(C)[C@H]1CC[C@H](CNc2nc(N3CCOCC3)cc(-n3c(C(F)F)nc4ccccc43)n2)CC1` [Example 219], the IC50 was 6000 nM at Human PI3Kα, 3.5 nM in test [1] and 14 nM at human PI3Kδ enzyme. Also, the inhibition in vivo at 10 mg/kg in the test on IL-2 production is 78%.
`FC(F)c1nc2ccccc2n1-c1cc(N2CCOCC2)nc(NC[C@H]2CC[C@H](N3CCCCC3)CC2)n1` [Example 202]: in the test on IL-2 production, the inhibition in vivo at 10 mg/kg turned out to be 80%.
